For assay [1], the target named is T1, rat lens aldose reductase (RLAR) (Rattus norvegicus, UniProt P07943).
T1 construct: the supernatant that retained the RLAR was collected for further tests; from tissue; host or cells: eye lens of Sprague-Dawley rats
Kind of assay: Rat lens aldose reductase (RLAR) inhibitory assay. The assay is classed as biochemical. The following applies: mean ± SD (n = 3); for inhibition at 10 µg/mL: sample concentration 10 μg/mL. Here is the method:
To extract the RLAR, the eye lens removed from the rats were first homogenized with sodium phosphate buffer (0.1 M, pH 6.2). […] Finally, the supernatant that retained the RLAR was collected for further tests. […] The inhibitory activities of the samples can be calculated using Equation (1):(1) Inhibition (%)=(1−ΔAsample−ΔAblank/ΔAcontrol−ΔAblank)×100% where ΔAcontrol is the absorbance change in 3 min of the tested mixture without the sample; ΔAblank is the absorbance change in 3 min of the tested mixture without RLAR; and ΔAsample is the absorbance change in 3 min of the tested mixture. The IC50 values of the active samples were also calculated and listed, where IC50 indicates the concentration of the tested sample required to consume half of the NADPH.

Assay [2] has as its target T2, human recombinant aldose reductase (Homo sapiens, UniProt P15121).
T2 construct: purchased Wako Pure Chemical Industries Ltd. (Osaka, Japan)
The assay is described as follows: Affinity-based ultrafiltration-HPLC screening. The assay is classed as binding. The conditions noted are these: ESME incubated with AR 6.9 µM, 37 °C, 30 min, ultrafiltrate analysed. The protocol: The ultrafiltrate was collected for further HPLC analysis.
HPLC analysis was performed using an Agilent 1100 HPLC instrument (Agilent, Santa Clara, CA, USA) equipped with an Eclipse Plus C18 column (150 mm length, 4.6 mm i.d., and 5 µm particle size; Agilent, Santa Clara, CA, USA). The temperature of the column oven was set at 30 °C and the injection volumes of the samples were 10 µL.

Read-outs that look alike come from different tables or passages of the source.

One may read the IC50 as the concentration that inhibits the measured activity by half. In general, inhibition refers to the drop in the measured response relative to a control, in per cent. Read a high inhibition as strong suppression. On to `Oc1cc(O)c2c(c1)O[C@H](c1ccc(O)c(O)c1)[C@@H](O)C2` [Catechin (3), catechin], for which the IC50 in assay [1] (isolated compounds, read-out: IC50) worked out at 14.8 ± 3.17 µM. Besides, the inhibition at 10 µg/mL in assay [1] (isolated compounds) came to 69.6 ± 1.99%. In assay [2], the “HPLC peak area after incubation with human recombinant aldose reductase vs without” value is on record as “decreased”.

With `O=C(O)c1cc(O)c(O)c(O)c1` [Gallic acid (1), gallic acid], the IC50 in assay [1] (IC50, isolated compounds) is 11.5 ± 1.82 µM. This molecule also had an inhibition at 10 µg/mL in assay [1] (isolated compounds) of 80.2 ± 1.56%. Also, the “HPLC peak area after incubation with human recombinant aldose reductase vs without” value in assay [2] was “decreased”.

On to `COC(=O)c1cc(O)c(O)c(O)c1` [Methyl gallate (4), methyl gallate], for which 10 µg/mL produced 32.2 ± 0.97% inhibition in assay [1] (isolated compounds). Further, in assay [2], the “HPLC peak area after incubation with human recombinant aldose reductase vs without” value is listed as “decreased”.

For `Oc1cc(O)c2c(c1)O[C@H](c1ccc(O)c(O)c1)[C@@H](O)[C@@H]2c1c(O)cc(O)c2c1O[C@H](c1ccc(O)c(O)c1)[C@@H](O)C2` [Procyanidin B3 (2), procyanidin B3], in assay [1] (isolated compounds), the inhibition at 10 µg/mL is 44.6 ± 1.99%. The “HPLC peak area after incubation with human recombinant aldose reductase vs without” value in assay [2] is on record as “decreased”.

Molecule `O=c1c(O)c(-c2ccc(O)c(O)c2)oc2cc(O)cc(O)c12` [Quercetin, quercetin, reference compound] registered an inhibition at 10 µg/mL in assay [1] (extracts and fractions) of 81.6 ± 3.81%.

Values taken from PMC6695788, “Screening and Isolating Major Aldose Reductase Inhibitors from the Seeds of Evening Primrose (Oenothera biennis)” (Molecules, 2019).
